Assay results reported in US20240023534A1, “Devices, Compositions and Methods for Insect Control” (Agriculture Victoria Services PTY LTD, priority 2020, published 2024).
“Also recorded” adds a separate entry of the source.

Legend:
[1] = tested on: Carpophilus truncatus; experiment: Cage dual-choice bioassay, co-attractant with one ingredient suppressed; type: in vivo; conditions: for attractiveness of commercial co-attractant in the absence of the compound / role of the compound: test solution lacking one ingredient vs CL in 45% ethanol, fifty beetles
Experimental: FIG. 9. Boxplots representing the results of lab-conducted cage dual-choice assays on Carpophilus truncatus responses to odours. Between 50 and 100 beetles were simultaneously exposed to a solution of co-attractant […] one ingredient at a time was suppressed (treatments). The attraction index was calculated as follows: (number of beetles in test solution−number of beetles in control)/(total number of beetles). […] Line in the boxplots correspond to the median, top and bottom of the boxplots represent the 75th and 25th percentiles respectively while error bars depict the 5th and 95th percentiles. White dots are outliers. n correspond to the replication of each experiments. p values result from paired t-tests and stars indicate the level of statistical significance.
Fifty beetles were simultaneously exposed to a solution of co-attractant (control) and a solution of co-attractant from which one additive at a time was suppressed (treatments, see table 4). The attraction index was calculated as follows: (number of beetles in test solution—number of beetles in control)/(total number of beetles).

[2] = Release of compounds from the commercial co-attractant solution; type: physicochemical; conditions: for Release rate (commercial solution): compound in commercial co-attractant solution; for duration of release in the current solution: current co-attractant solution
[3] = Gravimetric release rate and longevity of lure constituents in LDPE sachets; type: physicochemical; conditions: for Est. long. / Release rate: compound on wick in LDPE sachet, thickness, size, load per Table 1
Experimental: The release rates of co-attractant components formulated in low density polyethylene (LDPE) sachets were investigated (FIG. 1).
The release rate and theoretical longevity of the lure constituents in sachets were tested in gravimetric experiments. Data were used to determine the optimal sachet thickness, size (surface area) and estimated longevity of individual components (FIG. 2).
A fixed volume (1 ml) of each lure constituent was individually loaded in 50 cm 2 of different thicknesses (50, 100, 150 and 200 μm). Sachets were weighed daily for the first 5 days and later at greater time intervals. Release rates of the compounds through different sachet thicknesses were inferred using sachet weight loss over time (FIG. 2). Only the linear part of the weight loss curve was considered in the calculations of release rates. The maximum estimated longevity was deduced from the calculated release rate and corrected based on adjusted sachet size and volume of chemical loaded.

[4] = Sachet size, thickness, release rate and lure longevity studies (Table 3, based on GC-MS analysis); type: physicochemical; conditions: for Est. long. / Release rate: LDPE sachet per Table 3, based on GC-MS analysis
Experimental: Studies determining optimal sachet size and thickness, lure concentration, release rates and lure longevity were performed as described in Table 3.

[5] = tested on: C. davidsoni; experiment: GC-EAD of beetle antennae to Pichia kluyveri headspace volatiles; conditions: female and male adults, P. kluyveri headspace volatiles
From the text: FIG. 6. GC-EAD responses of female (♀) and male (♂) C. davidsoni adults to headspace volatiles (black, FID chromatogram) of the fruit yeast Pichia kluyveri. […] IS=Internal standard, IS1=n-octane, IS2=Nonyl acetate.

[6] = tested on: C. davidsoni; experiment: Field trial of synthetic blends in peach orchard (Example 6); type: in vivo; conditions: CL+2PA, CL+IA, CL+IA+2PA vs CL; five weeks, N=6
From the text: C. davidsoni catches using prototype co-attractant solutions in a stone fruit orchard (Shepparton, VIC). CL corresponds to the control (original Carpophilus Lure co-attractant), CL+IA (co-attractant+Isopentyl Acetate), CL+PA (co-attractant+2-Phenethyl acetate) and CL+IA+PA (co-attractant+Isopentyl Acetate+2-Phenethyl acetate). […] Number of replicates per treatment N=6.
Synthetic blends consisting of the combination of the existing carpophilus lure with two new potential yeast attractants; namely Isopentyl acetate and 2-phenylethyl acetate; were formulated based on their respective ratio to ethyl acetate (Table 2) and tested in the field.
Field trials were conducted in a peach orchard in Invergordon (Victoria). Treatments included the original carpophilus lure (CL: control), the original lure combined with Isopentyl acetate (CL+IA) or with 2-phenylethylacetate (CL+2PA) or both (CL+IA+2PA). Six replicates of each odour blend were placed in black funnel traps held on pickets at 1.5 m height, arranged in randomized transects. Beetles were collected and synthetic blends replaced weekly over a 5-week period.
These compounds were tested either separately or together in the existing Carpophilus co-attractant and compared with the original co-attractant in the field. The trial was conducted over a five week period during which the beetles were collected and the lure solutions renewed weekly.

[7] = tested on: C. truncatus; experiment: GC-EAD responses to W. rabaulensis odour; conditions: W. rabaulensis headspace odour
Experimental: FIG. 10. […] 1-Acetaldehyde. 2-Ethanol. 3-Isobutanol. 4-Isopentyl alcohol. 5-2-Methyl butanol. 6-Isobutyl acetate. 7-Isopentyl acetate.
As co-attractants are derived from microbial odours, beetle attraction towards yeast odours isolated from the insect's gut was tested (Farrukh Baig, PhD thesis, 2020). […] Synthetic blends of the yeast odours were developed and field tested.

Which “attractiveness of commercial co-attractant in the absence of the compound / role of the compound” value [1] does the source give for CCO [ethanol] here?
Its value is “significantly less attractive”.

What about the “ethanol emission rates in the commercial lure” value ([2]; commercial lure) of the same compound?
The value was 2.5 g/day.

And the “permeation through the LDPE layers” value ([3]; LDPE sachets)?
Its value is “limited permeation”.

What about the “maximum release rate achievable with thin sachets” value ([3]; thin LDPE sachets, lab experiments) of the same compound?
Its value is about 25 mg/day.

For CCC(C)CO (stereo not shown) [2-methyl-butanol], which Est. long. [4] is on record?
The Est. long. was 200+ days.

What about the Release rate [4] of the same compound?
Its Release rate is 4.3 mg/day.

What about the “attractiveness of commercial co-attractant in the absence of the compound / role of the compound” value [1] of the same compound?
The value was “significantly more attractive”.

What about the “Release rate (commercial solution)” value [2] of the same compound?
Its value is 0.6 mg/day.

What about the GC-EAD antennal response [5] of the same compound?
The GC-EAD antennal response was “consistent physiological responses”.

What about the Est. long. [3] of the same compound?
Its Est. long. is 200+ days.

And the Release rate [3]?
The Release rate was 4.3 mg/day.

Which GC-EAD antennal response [5] does the source give for CCCOC(C)=O [Propyl acetate] here?
Its GC-EAD antennal response is “consistent physiological responses”.

Which Est. long. [4] does the source give for CC(C)CCO [Isopentyl alcohol] here?
The Est. long. was 300 days.

And the Release rate [4]?
Its Release rate is 3.4 mg/day.

And the “effect of increased concentrations on lure efficacy” value ([1]; further cage bioassay experiments)?
Its value is “increase in lure efficacy”.

What about the “attractiveness of commercial co-attractant in the absence of the compound / role of the compound” value [1] of the same compound?
Its value is “significantly less attractive”.

And the “Release rate (commercial solution)” value [2]?
Its value is 3.3 mg/day.

And the GC-EAD antennal response [5]?
The GC-EAD antennal response was “consistent physiological responses”.

And the Est. long. [3]?
The Est. long. was 300 days.

What about the Release rate [3] of the same compound?
Its Release rate is 3.4 mg/day.

With CCC(=O)OCCc1ccccc1 [2-phenylethylpropionate] as the compound, how does the GC-EAD antennal response [5] read?
Its GC-EAD antennal response is “consistent physiological responses”.

For CCC1CCC(=O)O1 (stereo not shown) [γ-caprolactone], which GC-EAD antennal response [5] is on record?
The GC-EAD antennal response was “consistent physiological responses”.

With CC(=O)OCc1ccco1 [2-furanmethanol acetate] as the compound, how does the GC-EAD antennal response [5] read?
The GC-EAD antennal response was “consistent physiological responses”.

For CCCCOC(C)=O [Butyl acetate], which GC-EAD antennal response [5] is on record?
The GC-EAD antennal response was “consistent physiological responses”.

Which GC-EAD antennal response [5] does the source give for CCCCCCCC(=O)OCC [Ethyl octanoate] here?
Its GC-EAD antennal response is “consistent physiological responses”.

Which results are given for CC(C)CO [Isobutyl alcohol]?
Est. long. [4]: 200+ days; Release rate [4]: 4.9 mg/day; attractiveness of commercial co-attractant in the absence of the compound / role of the compound [1]: seem to not influence; Release rate (commercial solution) [2]: 2.9 mg/day; GC-EAD antennal response [5]: consistent physiological responses; Est. long. [3]: 200+ days; Release rate [3]: 4.9 mg/day

What does the source list for CC(=O)OCCC(C)C [Isopentyl acetate]?
effect on beetle capture of adding the compound to the original co-attractant (CL) [6]: reduce lure attractiveness; antennal responses (GC-EAD) [7]: strong antennal responses; GC-EAD antennal response [5]: consistent physiological responses; also recorded: strong sensitivity

With CC(=O)OCC(C)C [Isobutyl acetate] as the compound, how does the “antennal responses (GC-EAD)” value [7] read?
Its value is “strong antennal responses”.

What about the GC-EAD antennal response [5] of the same compound?
Its GC-EAD antennal response is “consistent physiological responses”.

With CC=O [acetaldehyde] as the compound, how does the Est. long. [4] read?
Its Est. long. is 40 days.

And the Release rate [4]?
Its Release rate is 50 mg/day.

And the “attractiveness of commercial co-attractant in the absence of the compound / role of the compound” value [1]?
Its value is “tend to act as an attractant”.

What about the “Release rate (commercial solution)” value [2] of the same compound?
The value was 43 mg/day.

And the “duration of release in the current solution” value [2]?
The value was 1 days.

What about the “duration of release when applied in sachets” value ([3]; LDPE sachets) of the same compound?
The value was 1 week.

And the Est. long. [3]?
Its Est. long. is 7 days.

What about the Release rate [3] of the same compound?
Its Release rate is 50 mg/day.

What does the source list for CC(=O)OCCc1ccccc1 [2-phenylethylacetate]?
Est. long. [4]: 70+ days; Release rate [4]: 28 mg/day; longevity in sachets ([4]; dispensed in sachets): over 70 days; effect on beetle capture of adding the compound to the original co-attractant (CL) [6]: significantly more beetles; GC-EAD antennal response [5]: consistent physiological responses; GC-EAD antennal response ([5]; listed as 2-phenethyl acetate): strong sensitivity

For CCOC(C)=O [ethyl acetate], which Est. long. [4] is on record?
Its Est. long. is 15 days.

What about the Release rate [4] of the same compound?
Its Release rate is 136 mg/day.

What about the “attractiveness of commercial co-attractant in the absence of the compound / role of the compound” value [1] of the same compound?
The value was “seem to not influence”.

And the “Release rate (commercial solution)” value [2]?
The value was 110 mg/day.

What about the “duration of release in the current solution” value [2] of the same compound?
Its value is 1 days.

And the GC-EAD antennal response [5]?
The GC-EAD antennal response was “consistent physiological responses”.

And the “duration of release when applied in sachets” value ([3]; LDPE sachets)?
Its value is 1 week.

And the Est. long. [3]?
Its Est. long. is 15 days.

What about the Release rate [3] of the same compound?
Its Release rate is 136 mg/day.

With CC(=O)OCc1ccccc1 [Phenylmethyl acetate] as the compound, how does the GC-EAD antennal response [5] read?
Its GC-EAD antennal response is “consistent physiological responses”.
